From ChEMBL document CHEMBL3507680, “University of Dundee, Gates Library screen for HepG2 cell viability”

Experiment: Human HepG2 cell viability assay in 384 well format
Assay type: toxicity, cell-based
Design: dose 125 nL, time 70.5 hour; cytotoxicity at 70.5 h: concentration not given beside the values
Conditions: HepG2 cells, read-out: Inhibition

Row | Compound | cytotoxicity at 70.5 h [%]
1 | CC(=O)N1CC(C(=O)NC(C)c2cnn(C)c2C)C1 (stereo not given) | -4.41
2 | O=C(CN1CCc2ccccc2C1)NCc1ccco1 | 3.48
3 | CCN(CC)C(C)CNC(=O)c1cccnc1Oc1cccnc1 (stereo not given) | -5.14
4 | Cc1cccc(CC(=O)NS(=O)(=O)c2ccc(F)c(F)c2)c1 | 8.16
5 | CC(=O)Cc1c(C)nn(-c2cncc(N)c2)c1C | -1.56
6 | COc1cc(N2CCC3(CC2)CN(S(C)(=O)=O)c2ccccc23)ncn1 | -2.83
7 | CC(C)n1nc(Cn2cccn2)c2c1CN(C1CCOC1)C2 (stereo not given) | -4.66
8 | CCc1oc(C(=O)N[C@@H]2c3ccccc3C[C@@H]2O)cc1CN1CCCC1 | -6.15
9 | CC(C)n1ccc(-c2cc(C(=O)N3CCN(C)CC3)c3ccccn23)n1 | -3.84
10 | CCOC(=O)CNC(=O)NCc1cccn1Cc1ccc(F)cc1 | 22.9
11 | O=C(NCC1CCS(=O)(=O)C1)c1cccc(CN2CCCC2)c1 (stereo not given) | -16
12 | Cc1ccsc1C(=O)NCc1ccnc(N2CCN(C)CC2)c1 | -8.63
13 | COc1ccc2[nH]c(=O)c(CN(C)CCN3CCCC3)cc2c1 | 57.1
14 | N#Cc1cccc(N2CCCC(CO)(CCOc3ccccc3)C2)n1 (stereo not given) | 8.55
15 | CN(Cc1ccccc1)C1(C(=O)NCC(N)=O)Cc2ccccc2C1 | 5.7
16 | CN(c1ccc(Cl)c(C(=O)NCCCN2CCOCC2)c1)S(C)(=O)=O | 3.59
17 | CC1CN(C)CCN1C(=O)Nc1nc(-c2ccco2)cs1 (stereo not given) | -13.7
18 | O=C(c1cc2ccccc2c(=O)[nH]1)N1CCN(CCO)CC1 | -4.06
19 | Cc1nc(C)n(CC2CCCCN2Cc2cn3ccccc3n2)n1 (stereo not given) | -19.3
20 | CN(C)c1cccc(C(=O)NCC(O)c2cccs2)c1 (stereo not given) | 20.3
21 | CCN(CC1COc2ccccc2O1)C(=O)C1=NN(C)C(=O)CC1 (stereo not given) | -2.86
22 | NC(=O)C1(Cc2ccc(-c3ccccc3)cc2)CCNC1 (stereo not given) | 36.2
23 | COc1cc(CCC(C)O)c(OC)c2c1OCO2 (stereo not given) | -4.78

Row | Compound | cytotoxicity at 70.5 h [%]
24 | CC(=O)N1CCC(c2nccnc2Oc2ccccc2)CC1 | 1.62
25 | CC(C)COCCCNC(=O)c1cccnc1N1CCOCC1 | 4.2
26 | O=C(CCNc1ncccn1)Nc1cc(C(F)(F)F)c[nH]c1=O | -6.4
27 | CCOC(=O)CNC(=O)c1cccnc1Sc1cc(OC)ccc1OC | 11.1
28 | CC(C)c1nnc2n1CCN(C(=O)c1ccccc1OCC1CC1)C2 | -4.61
29 | COc1cccc(CNc2c(C)cnc3c2c(=O)n(C)c(=O)n3C)c1 | 35.6
30 | CCc1ncncc1C(=O)N1CCN(Cc2ccsc2)CC1 | 7.59
31 | CC(C)c1noc(CN(C)C(=O)c2ncn[nH]2)n1 | 3.61
32 | CC(NC(=O)CN(C)S(C)(=O)=O)c1ccc(F)cc1 (stereo not given) | -11.2
33 | Cn1ncc(-c2cc(-c3cccc(O)c3)nc(N)c2C#N)c1C1CC1 | 37.1
34 | Cc1cnc(C(=O)N2CCC3(CCN(Cc4ccccn4)C3=O)C2)cn1 (stereo not given) | 6.84
35 | CC(=O)C(Cc1ccccc1)NC(=O)CSc1nncn1C (stereo not given) | -5.49
36 | Cc1nsc(NC(=O)NC2CCN(C)CC2)n1 | -11.7
37 | COc1cc(F)c(NC(=O)N(C)Cc2cc(C)on2)cc1F | -5.99
38 | Cc1c[nH]nc1C1CCN(C(=O)C2CCOCC2)C1 (stereo not given) | 12.3
39 | CNc1nc(CNC(=O)Nc2cccc(COCCOC(C)C)c2)cs1 | 2.29
40 | Cc1cc(-n2cncn2)n2ncnc2n1 | -2.11
41 | CCC1CN(C(=O)c2cccc(OCc3cscn3)c2)CCO1 (stereo not given) | -5.57
42 | Cc1cccc(CN2C[C@@H]3CN(C(=O)C4CC=CC4)C[C@@H]3C2=O)n1 | -14.7
43 | CN(Cc1ccccc1)c1ccc(C(F)(F)F)cn1 | -3.92
44 | CC(=O)c1cnc(N(C)Cc2cc(C)cc(C)n2)nc1C | -8.24
45 | CSCCCN1CCC[C@]2(C(=O)O)CN(c3cnccn3)CC[C@@H]12 | 26.4
46 | O=C(CCNCc1cccc(O)c1)N1CCc2sccc2C1 | -7.91

Row | Compound | cytotoxicity at 70.5 h [%]
47 | COCCN1C[C@@H]2[C@@H](OC)CCN(Cc3ccncc3)[C@@H]2C1 | -0.354
48 | Cc1cc(C)n(CC2CCCN2CC(=O)N(C)CCC#N)n1 (stereo not given) | -8.11
49 | C=C(C)COc1cccc(C(=O)N(C)Cc2cc(CC)no2)c1 | -3.37
50 | CC(C)n1nnc(CC(=O)NCC2(c3cccc(F)c3)CCCC2)n1 | 15.1
51 | Cn1cc(CCNC(=O)NCc2ccc3c(c2)OCCO3)cn1 | 2.32
52 | O=S(=O)(Cc1ccccc1F)NC(CO)c1ccco1 (stereo not given) | 18.8
53 | Cc1nc(C)n(CC2CCCN(CCOc3ccc(F)cc3)C2)n1 (stereo not given) | -3.5
54 | CC(C)OC(=O)CNC(=O)Nc1ccc(-c2nc(C(C)C)no2)cc1 | 2.82
55 | OCCNC1CSCCc2ccccc21 (stereo not given) | 33.4
56 | CO[C@@H]1CC[C@@H](NC(=O)c2ccc(OCCN3CCCC3)cc2)[C@H]1O | -4.63
57 | CC(NC1(CNC(=O)CC2CCCC2)CCOCC1)c1ccccc1 (stereo not given) | -6.24
58 | Cc1ccc(CN2C[C@@H]3CCN(Cc4cccnc4)C(=O)[C@H]3C2)s1 | 14.5
59 | CCn1nc(C)c(NC(=O)CCn2ncc3cc(C)ccc32)c1C | 13.9
60 | CN(Cc1ccsc1)C(=O)CN1CCCC1Cn1cccn1 (stereo not given) | -13.8
61 | CCCC(NC(=O)c1ccccn1)c1nnc2ccccn12 (stereo not given) | -12.2
62 | Cc1ccc2c(n1)N(CCn1cccn1)CCN(C(=O)CC1CC1)C2 | -15.3
63 | COCCC(=O)N1C[C@@H](O)[C@H](N2CCN(c3ccccc3)CC2)C1 | -2.33
64 | Clc1ccc2oc(C3CCN(Cc4cccnc4)CC3)nc2c1 | 22.9
65 | c1ncn(CC2CCCCN2Cc2cn3ccsc3n2)n1 (stereo not given) | 5.43
66 | COCCNC(=O)Nc1ccc(C(=O)N2CCSCC2)cc1C | -12.4
67 | COCC(=O)N1CCN(C(=O)c2scnc2C)CC1 | -11.5
68 | CNC(=O)Cc1ccc(NC(=O)NC2(c3cccc(F)c3)CC2)cc1 | -3.37
69 | CC(NC(=O)NCCCn1cncn1)c1ccc2c(c1)OCCO2 (stereo not given) | -7.07

Row | Compound | cytotoxicity at 70.5 h [%]
70 | Cc1nc(CN2C[C@@H]3CN(C(=O)[C@H]4CCCO4)C[C@@H]3C2=O)cs1 | -8.74
71 | CN(C)CCN1CC2(CCCN(c3ncc(Cl)cc3F)C2)CCC1=O (stereo not given) | -5.68
72 | COc1coc(C(=O)Nc2nc(C)cs2)cc1=O | -15.8
73 | CC(=O)N1CCCC1c1ccc(C(=O)N2CCOCC2)s1 (stereo not given) | 14.5
74 | COCCNC(=O)Cn1nc(C(C)C)c2cnn(C(C)(C)C)c2c1=O | -3.75
75 | Cc1nnc(NCc2ccc(SC(F)F)cc2)o1 | 14.2
76 | Cc1csc2nc3n(c(=O)c12)CCN(Cc1c[nH]cn1)CC3 | 0.274
77 | O=C1COc2cc(C(=O)NS(=O)(=O)c3cccc(Cl)c3)ccc2N1 | -19.1
78 | CC(C)(C)CC(=O)NCC1CCCS1 (stereo not given) | -8.2
79 | Cc1ccc(CNC(=O)NCC(=O)N2CCCC2)c(N2CCCC2)c1 | 4.74
80 | Cc1ccccc1C(C)NC(=O)CSCC#N (stereo not given) | 12.8
81 | Cc1ccc(-c2cc(N)c(=O)n(CC(=O)NCC3CC3)n2)s1 | -23.3
82 | Cc1nn(C)cc1-c1cncn1CCN(C)C1CCCC1 | -5
83 | COc1cc(C2Nc3cc(Cl)ccc3C3=NCCN32)ccc1O (stereo not given) | -8.38
84 | O=C(NCc1ccc(-n2cncn2)nc1)N(CC1CCOC1)C1CC1 (stereo not given) | -5.41
85 | CCn1cc(NC(=O)CCc2ccc3c(c2)OCCCO3)cn1 | 10.1
86 | CCN(CC)S(=O)(=O)CCNc1ncnc2cc(F)c(F)cc12 | -1.89
87 | CCN(CC(=O)Nc1cc(Cl)ccc1C)C(=O)c1ccncc1 | -1.81
88 | COc1ccc(C(=O)NS(C)(=O)=O)cc1-c1ccccc1 | -1.59
89 | O=C1COC2(CCN(C(=O)c3ccoc3)CC2)CN1Cc1cccnc1 | -6.92
90 | CCC(CO)N(Cc1ccco1)C(=O)c1ccccc1NC (stereo not given) | 0.632
91 | CC1CCCCN1C(=O)COCc1nc(-c2ccncc2)no1 (stereo not given) | 4.94
92 | O=C(Cc1cnn(-c2ccccc2)n1)NC(C1CC1)C1CC1 | 0.511

Row | Compound | cytotoxicity at 70.5 h [%]
93 | CCN1CCN(c2ccc(CNC(=O)c3ccccc3F)cn2)CC1 | -0.777
94 | O=C(c1ccncc1)N1CCCn2nnc(COCCO)c2C1 | -5
95 | O=C(c1ncc[nH]1)N1CCC(n2cc(-c3cccc(Cl)c3)nn2)CC1 | 8.61
96 | Nc1c(C(=O)C2CCCN(C(=O)C3CC3)C2)cnn1-c1ccc(F)cc1 (stereo not given) | -2.33
97 | COCCNC(=O)C1(Cc2ccccc2-c2ccncc2)CCOCC1 | -9.35
98 | O=C(NCCNc1ncccn1)N1CC=C(c2ccccc2)CC1 | -4.56
99 | Cc1cc(C)c(OCC(=O)NS(=O)(=O)c2c(C)noc2C)c(C)c1 | 12.1
100 | CNCCCNc1nc(C2CCCC2)nc2c1cnn2C | 2.51
101 | O=C1N(CC2CC2)CCC12CCN(c1ncccn1)CC2 | -3.31
102 | O=C(NCc1cc(Cl)ccn1)NCc1ccco1 | 13.9
103 | Cc1ccc(CNC(C)(C)c2noc(C(C)(C)C)n2)o1 | -1.89
104 | CCC(C(=O)NCc1noc(Cc2cccs2)n1)n1cccn1 (stereo not given) | 26
105 | O=C(c1ccncc1)N1Cc2ccccc2OC2(CCOCC2)C1 | -18.2
106 | c1ccc(CN2CC[C@H]3CO[C@H](CNc4ncccn4)[C@H]3C2)nc1 | -0.901
107 | O=C(c1ccno1)N1CC[C@@H]2O[C@@H](COCCN3CCCC3)CC[C@@H]21 | -17.9
108 | Cc1ncc(CN2CCc3c(nc(-c4ccccn4)[nH]c3=O)C2)n1C | -8.75
109 | Cc1ccc(C(=O)N2CCCn3nc(CCC(=O)O)cc3C2)cc1Cl | -2.03
110 | Clc1cccc(CNc2cnn(CCN3CCCCC3)c2)c1 | -11.9
111 | CCN(CC)C(=O)c1ccn(COc2cccc(Cl)c2Cl)n1 | -2.31
112 | Cc1[nH]ccc1C(=O)NCC1CC(=O)N(CCc2ccccc2)C1 (stereo not given) | -3.09
113 | CO[C@H]1CN(C(=O)c2nc(-c3ccccc3)[nH]c2C)CC[C@H]1N | 25.8
114 | COCCNC(=O)[C@H]1C[C@@H]2CCN(c3nncs3)C[C@H]2O1 | -4.17
115 | Cc1ccc(NCCCNC(=O)NCC2CCS(=O)(=O)C2)nc1 (stereo not given) | -17.4
